Laboratory results reported in ChEMBL document CHEMBL1201862, “PubChem BioAssay data set” (2004).
Calls of active or inactive are those of the source. Cut-off read from the data, not from the text of the source: active = IC50 of 20 µM or less and inactive = more.

Target: T1, Hexokinase HKDC1 (Homo sapiens, UniProt Q2TB90)
T1 sequence (Q2TB90 whole entry): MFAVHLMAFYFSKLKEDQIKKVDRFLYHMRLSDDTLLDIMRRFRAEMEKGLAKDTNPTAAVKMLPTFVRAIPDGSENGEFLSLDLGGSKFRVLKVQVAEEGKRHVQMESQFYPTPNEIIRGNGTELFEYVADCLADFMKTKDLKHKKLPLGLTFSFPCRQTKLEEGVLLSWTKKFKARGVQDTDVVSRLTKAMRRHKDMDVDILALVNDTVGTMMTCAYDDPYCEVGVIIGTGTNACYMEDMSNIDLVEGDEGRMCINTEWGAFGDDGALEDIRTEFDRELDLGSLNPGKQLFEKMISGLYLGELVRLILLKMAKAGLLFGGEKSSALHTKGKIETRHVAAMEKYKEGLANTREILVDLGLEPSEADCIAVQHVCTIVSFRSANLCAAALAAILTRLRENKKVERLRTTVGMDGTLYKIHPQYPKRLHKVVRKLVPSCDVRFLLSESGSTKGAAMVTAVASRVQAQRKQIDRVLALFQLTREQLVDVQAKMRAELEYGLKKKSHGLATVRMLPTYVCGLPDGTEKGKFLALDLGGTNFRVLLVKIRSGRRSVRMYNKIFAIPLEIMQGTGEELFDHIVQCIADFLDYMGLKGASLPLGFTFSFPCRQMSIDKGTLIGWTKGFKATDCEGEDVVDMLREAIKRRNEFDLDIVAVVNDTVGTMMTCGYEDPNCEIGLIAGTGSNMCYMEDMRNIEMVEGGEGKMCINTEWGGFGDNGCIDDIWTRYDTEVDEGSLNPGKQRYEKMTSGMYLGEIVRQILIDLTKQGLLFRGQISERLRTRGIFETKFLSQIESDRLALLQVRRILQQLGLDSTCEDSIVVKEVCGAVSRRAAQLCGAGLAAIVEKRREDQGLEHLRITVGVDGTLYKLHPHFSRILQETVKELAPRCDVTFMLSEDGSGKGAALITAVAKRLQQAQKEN
Assay: inhibition of HKDC1 glucose phosphorylation – biochemical, W721R variant, dose response (AID 504729)
Assay type: functional

With `CCOC(=O)C1=C(c2ccc(OC)cc2)C(=O)c2ccccc2C1=O` the IC50 was 2.32 µM (active).
